The results in this text go back to patent publication US20230085307A1, “PYRIDAZINONE COMPOUND AND HERBICIDE” (NISSAN CHEMICAL CORPORATION, priority 2019, published 2023).

For one experiment, the system named is late watergrass. Put plainly: Test Example 1: herbicidal activity, application before weed generation under submerged conditions (Table 16, symbol A). Format: in vivo, late watergrass (Echinochloa oryzicola). The following applies: 320 g/ha applied herbicide. The procedure, abridged:
(§1)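 Alluvial soil was flooded to 4 cm depth, weed seeds were sown mixed and 2.5-leaf rice seedlings were transplanted. On sowing day, the compound's emulsion, diluted in water to a set dose, was applied to the water surface. Plants grew at 25–30 °C and were scored 0–5 after three weeks.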

The test system of another experiment is Japanese bulrush. Put plainly: Test Example 1: herbicidal activity, application before weed generation under submerged conditions (Table 16, symbol B). Format: in vivo, Japanese bulrush (Schoenoplectus juncoides). The following applies: 320 g/ha applied herbicide. The procedure, abridged: as §1
In the next experiment the test system is oval-leafed pondweed. Description: Test Example 1: herbicidal activity, application before weed generation under submerged conditions (Table 16, symbol C). Format: in vivo, oval-leafed pondweed (Monochoria vaginalis). The following applies: 320 g/ha applied herbicide. Summed up: as §1
Experiment [1] concerns barnyard grass. Put plainly: Test Example 3: herbicidal effect by foliage application, Wagner pot (Table 18, symbol H). The format is in vivo, barnyard grass (Echinochloa crus-galli). Particulars: 320 g/ha. The procedure, abridged: (§2)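 Plants were sown in alluvial soil held under 0.1–0.5 cm standing water and grown 14 days in a greenhouse at 25–30 °C. An emulsifiable formulation, water-diluted to the set dose, was then sprayed onto the foliage, and effects were scored three weeks later using previously defined criteria.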

The next experiment has as its system Chinese sprangletop. Put plainly: Test Example 3: herbicidal effect by foliage application, Wagner pot (Table 18, symbol D). The format is in vivo, chinese sprangletop (Leptochloa chinensis). Particulars: 320 g/ha. The procedure, abridged:
as §2

The next experiment deals with rice flat sedge. Put plainly: Test Example 3: herbicidal effect by foliage application, Wagner pot (Table 18, symbol E). Particulars: 320 g/ha. The format is in vivo, rice flat sedge (Cyperus iria). The procedure, abridged:
as §2

Another experiment relates to southern crabgrass. Put plainly: Test Example 5: herbicidal effect by foliage application, plastic box (Table 20, symbol F). Format: in vivo, southern crabgrass (Digitaria ciliaris). The following applies: foliage application, AAH 320 g/ha, three weeks after application. The procedure, abridged:
(§3)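 Sow seeds spot-wise in sterilized diluvial soil; cover with ~1.5 cm soil. Grow 14 days in greenhouse, 25° C. to 30° C. Spray foliage with emulsion diluted to predetermined amount. Rate effect after 3 weeks.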

In another experiment the test system is green foxtail. Description: Test Example 5: herbicidal effect by foliage application, plastic box (Table 20, symbol G). The format is in vivo, green foxtail (Setaria viridis). Particulars: foliage application, AAH 320 g/ha, three weeks after application. The procedure, abridged:
as §3

Experiment [2] deals with barnyard grass. Description: Test Example 5: herbicidal effect by foliage application, plastic box (Table 20, symbol H). Format: in vivo, barnyard grass (Echinochloa crus-galli). The following applies: foliage application, AAH 320 g/ha, three weeks after application. Summed up:
as §3

The subject of the next experiment is wild oat. Description: Test Example 5: herbicidal effect by foliage application, plastic box (Table 20, symbol I). Format: in vivo, wild oat (Avena fatua). Particulars: foliage application, AAH 320 g/ha, three weeks after application. The procedure, abridged: as §3
The subject of a further experiment is blackgrass. Description: Test Example 5: herbicidal effect by foliage application, plastic box (Table 20, symbol J). The format is in vivo, blackgrass (Alopecurus myosuroides). The following applies: foliage application, AAH 320 g/ha, three weeks after application. Summed up: as §3
For the next experiment, the system named is Italian ryegrass. Description: Test Example 5: herbicidal effect by foliage application, plastic box (Table 20, symbol K). Format: in vivo, Italian ryegrass (Lolium multiflorum). Particulars: foliage application, AAH 320 g/ha, three weeks after application. Summed up:
as §3

The test system of a further experiment is windgrass. Description: Test Example 5: herbicidal effect by foliage application, plastic box (Table 20, symbol L). The format is in vivo, windgrass (Apera spica-venti). Particulars: foliage application, AAH 320 g/ha, three weeks after application. Summed up: as §3
In a further experiment the test system is velvetleaf. Description: Test Example 5: herbicidal effect by foliage application, plastic box (Table 20, symbol M). The following applies: foliage application, AAH 320 g/ha, three weeks after application. The format is in vivo, velvetleaf (Abutilon theophrasti). Summed up: as §3
In another experiment the test system is redroot pigweed. Put plainly: Test Example 5: herbicidal effect by foliage application, plastic box (Table 20, symbol N). The following applies: foliage application, AAH 320 g/ha, three weeks after application. Format: in vivo, redroot pigweed (Amaranthus retroflexus). The procedure, abridged:
as §3

For another experiment, the system named is lambsquarters. Description: Test Example 5: herbicidal effect by foliage application, plastic box (Table 20, symbol O). Format: in vivo, lambsquarters (Chenopodium album). The following applies: foliage application, AAH 320 g/ha, three weeks after application. The procedure, abridged: as §3
The next experiment has as its system chickweed. Description: Test Example 5: herbicidal effect by foliage application, plastic box (Table 20, symbol P). Format: in vivo, common chickweed (Stellaria media). Particulars: foliage application, AAH 320 g/ha, three weeks after application. Summed up: as §3
The next experiment relates to false cleavers. Put plainly: Test Example 5: herbicidal effect by foliage application, plastic box (Table 20, symbol Q). Particulars: foliage application, AAH 320 g/ha, three weeks after application. Format: in vivo, false cleavers (Galium spurium). Summed up:
as §3

For the next experiment, the system named is persian speedwell. Description: Test Example 5: herbicidal effect by foliage application, plastic box (Table 20, symbol R). Format: in vivo, Persian speedwell (Veronica persica). Particulars: foliage application, AAH 320 g/ha, three weeks after application. Summed up: as §3

Regarding `Cc1ccccc1C(=O)Oc1c(C)nn(C)c(=O)c1-c1c(-c2ccc3c(c2)OCCO3)sc2ccccc12` [1-093], the “Herbicidal effect on A: late watergrass (grade 0-5)” value with late watergrass was 3 (Herbicidal rate of 40% or more and less than 70%). Also, the “Herbicidal effect on B: Japanese bulrush (grade 0-5)” value in the experiment with Japanese bulrush is 1 (Herbicidal rate of 5% or more and less than 20%). The “Herbicidal effect on C: oval-leafed pondweed (grade 0-5)” value with oval-leafed pondweed is 0 (Herbicidal rate of 5% or less (almost no effect)). Moreover, the “herbicidal effect on H (barnyard grass), rating 0-5” value in the experiment with barnyard grass [1] is 3 (Herbicidal rate of 40% or more and less than 70%). In addition, in the experiment with Chinese sprangletop, the “herbicidal effect on D (Chinese sprangletop), rating 0-5” value is on record as 0 (Herbicidal rate of 5% or less (almost no effect)). Also, the “herbicidal effect on E (rice flat sedge), rating 0-5” value with rice flat sedge is 5 (Herbicidal rate of 90% or more (almost completely withered)). The “F: southern crabgrass, herbicidal effect” value in the experiment with southern crabgrass was 0 (Herbicidal rate of 5% or less (almost no effect)). Moreover, the “G: green foxtail, herbicidal effect” value with green foxtail was 0 (Herbicidal rate of 5% or less (almost no effect)). Also, the “H: barnyard grass, herbicidal effect” value with barnyard grass [2] is reported as 0 (Herbicidal rate of 5% or less (almost no effect)). For the same compound, in the experiment on wild oat, the “I: wild oat, herbicidal effect” value is 0 (Herbicidal rate of 5% or less (almost no effect)). The “J: blackgrass, herbicidal effect” value in the experiment on blackgrass is recorded as 0 (Herbicidal rate of 5% or less (almost no effect)). For the same compound, the “K: Italian ryegrass, herbicidal effect” value in the experiment with Italian ryegrass is recorded as 0 (Herbicidal rate of 5% or less (almost no effect)). Besides, the “L: windgrass, herbicidal effect” value with windgrass is reported as 0 (Herbicidal rate of 5% or less (almost no effect)). In addition, in the experiment with velvetleaf, the “M: velvetleaf, herbicidal effect” value is 5 (Herbicidal rate of 90% or more (almost completely withered)). In addition, the “N: redroot pigweed, herbicidal effect” value with redroot pigweed is 3 (Herbicidal rate of 40% or more and less than 70%). The “O: lambsquarters, herbicidal effect” value in the experiment with lambsquarters is 2 (Herbicidal rate of 20% or more and less than 40%). Also, in the experiment on chickweed, the “P: chickweed, herbicidal effect” value was 1 (Herbicidal rate of 5% or more and less than 20%). For the same compound, the “Q: false cleavers, herbicidal effect” value with false cleavers is 0 (Herbicidal rate of 5% or less (almost no effect)). The “R: persian speedwell, herbicidal effect” value with persian speedwell was 4 (Herbicidal rate of 70% or more and less than 90%).
